Data on nine molecules can be found in patent US11530221B2, “Pyrimido[4,5-d]pyrimidin-2-one derivatives as protein kinase inhibitors” (KOREA INSTITUTE OF SCIENCE AND TECHNOLOGY, priority 2019, dated 2022).

Common to all, as to format: biochemical
One test concerns the target LCK (Homo sapiens, UniProt P06239). Briefly: IC50 inhibitory activity against LCK kinase. The method, then: (§1) IC50 values were calculated by measuring the inhibitory activity against LCK, c-Src, p38a/MAPK14, ABL1, DDR1 and FGR kinases of the compounds of the present invention.
The target in a further test is c-Src (Homo sapiens, UniProt P12931). Briefly: IC50 inhibitory activity against c-Src kinase. The method, then: as §1
c-Src, sequence (P12931 whole entry): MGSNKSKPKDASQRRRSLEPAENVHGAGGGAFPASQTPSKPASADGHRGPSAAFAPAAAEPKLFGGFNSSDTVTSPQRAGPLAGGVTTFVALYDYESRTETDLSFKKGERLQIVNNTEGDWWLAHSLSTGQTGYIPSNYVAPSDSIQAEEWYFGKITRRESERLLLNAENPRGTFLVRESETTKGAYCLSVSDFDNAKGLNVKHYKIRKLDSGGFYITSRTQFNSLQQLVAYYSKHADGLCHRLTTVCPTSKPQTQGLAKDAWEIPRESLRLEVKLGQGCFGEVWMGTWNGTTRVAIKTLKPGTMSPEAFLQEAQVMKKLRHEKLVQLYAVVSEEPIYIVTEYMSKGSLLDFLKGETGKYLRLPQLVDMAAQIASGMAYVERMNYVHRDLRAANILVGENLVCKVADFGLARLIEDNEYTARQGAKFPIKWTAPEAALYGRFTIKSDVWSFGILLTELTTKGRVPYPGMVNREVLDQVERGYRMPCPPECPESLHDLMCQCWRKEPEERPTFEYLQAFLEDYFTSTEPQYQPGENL
Another test concerns the target p38a/MAPK14 (Homo sapiens, UniProt Q16539). Briefly: IC50 inhibitory activity against p38a/MAPK14 kinase. The method, then:
as §1

A further test concerns the target ABL1 (Homo sapiens, UniProt P00519). Nature of the test: IC50 inhibitory activity against ABL1 kinase. Here is the method:
as §1

The next test addresses ABL1 (T315I) (Homo sapiens, UniProt P00519, T315I). Nature of the test: IC50 inhibitory activity against ABL1 (T315I) kinase. The method, then: as §1
Another test addresses LYN (Homo sapiens, UniProt P07948). Briefly: IC50 inhibitory activity against LYN kinase.

Where two headings read alike, the source gives them in different places. Square brackets hold non-standard residues; d marks the D form. Peptide text beside a SMILES is read from it. * marks the point of attachment. X1 = Cc1ccc(Nc2ncc3c(n2)N(C)C(=O)N(c2cc(C(=O)*)ccc2C)C3)cn1; Aib = CC(C)(N)C(=O)O

LCK, sequence (P06239 whole entry): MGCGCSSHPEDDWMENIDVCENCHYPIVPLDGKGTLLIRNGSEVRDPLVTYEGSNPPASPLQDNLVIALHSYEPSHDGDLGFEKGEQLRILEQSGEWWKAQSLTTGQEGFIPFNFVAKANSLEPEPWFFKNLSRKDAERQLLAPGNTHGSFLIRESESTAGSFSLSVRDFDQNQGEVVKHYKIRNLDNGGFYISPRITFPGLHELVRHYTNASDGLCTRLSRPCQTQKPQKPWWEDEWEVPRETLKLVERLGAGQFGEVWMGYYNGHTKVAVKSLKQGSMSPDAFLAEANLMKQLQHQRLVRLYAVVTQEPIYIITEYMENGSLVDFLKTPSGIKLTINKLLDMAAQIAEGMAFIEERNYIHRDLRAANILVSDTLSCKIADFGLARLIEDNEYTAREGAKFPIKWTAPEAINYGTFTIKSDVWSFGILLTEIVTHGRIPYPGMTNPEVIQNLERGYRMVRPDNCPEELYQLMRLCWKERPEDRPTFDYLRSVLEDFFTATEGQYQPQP
p38a/MAPK14, sequence (Q16539 whole entry): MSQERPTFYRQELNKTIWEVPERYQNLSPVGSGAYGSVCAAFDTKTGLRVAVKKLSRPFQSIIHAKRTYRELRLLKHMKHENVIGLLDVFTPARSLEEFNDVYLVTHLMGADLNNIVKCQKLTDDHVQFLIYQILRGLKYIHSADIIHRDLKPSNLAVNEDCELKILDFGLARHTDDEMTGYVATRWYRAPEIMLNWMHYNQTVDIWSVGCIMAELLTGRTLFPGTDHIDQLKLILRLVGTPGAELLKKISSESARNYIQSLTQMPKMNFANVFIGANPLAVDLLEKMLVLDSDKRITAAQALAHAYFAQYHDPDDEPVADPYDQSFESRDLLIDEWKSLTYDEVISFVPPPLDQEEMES
LYN, sequence (P07948 whole entry): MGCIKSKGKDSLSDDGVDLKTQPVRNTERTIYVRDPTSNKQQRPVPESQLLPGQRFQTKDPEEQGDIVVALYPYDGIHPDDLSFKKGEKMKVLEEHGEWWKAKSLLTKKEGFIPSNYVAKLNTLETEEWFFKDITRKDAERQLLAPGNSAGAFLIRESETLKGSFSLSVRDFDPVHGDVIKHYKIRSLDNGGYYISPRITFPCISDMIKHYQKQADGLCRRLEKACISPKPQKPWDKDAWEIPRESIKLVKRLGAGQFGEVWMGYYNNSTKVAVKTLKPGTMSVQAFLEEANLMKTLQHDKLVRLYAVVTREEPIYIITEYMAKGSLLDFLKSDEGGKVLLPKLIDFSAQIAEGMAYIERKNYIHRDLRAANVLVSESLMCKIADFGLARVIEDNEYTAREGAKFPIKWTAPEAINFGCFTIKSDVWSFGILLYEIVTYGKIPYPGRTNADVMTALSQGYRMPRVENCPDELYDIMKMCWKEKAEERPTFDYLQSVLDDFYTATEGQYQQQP

In the case of `CC[C@@H](C)[C@H]1N=C(c2ccccc2)c2ccc(C(=O)Nc3ccc(C)c(N4Cc5cnc(Nc6ccc(C)nc6)nc5N(C)C4=O)c3)cc2NC1=O` [Example 32, (R)-3-((R)-sec-butyl)-N-(4-methyl-3-(1-methyl-7-((6-methylpyridin-3-yl)amino)-2-oxo-1,4-dihydropyrimido[4,5-d]pyrimidin-3(2H)-yl)phenyl)-2-oxo-5-phenyl-2,3-dihydro-1H-benzo[e][1,4]diazepine-8-carboxamide], the IC50 is 1 to 200 nM on LCK (read-out: LCK IC50); 1 to 200 nM at c-Src (read-out: c-Src IC50); 200 to 400 nM on p38a/MAPK14 (read-out: p38a/MAPK14 IC50); 1 to 200 nM at ABL1 (read-out: ABL1 IC50); more than 600 nM at ABL1 (T315I) (read-out: ABL1 (T315I) IC50).

For the molecule `Cc1ccc(Nc2ncc3c(n2)N(C)C(=O)N(c2cc(C(=O)N[C@H](C(=O)N4CCC[C@@H]4C(=O)NC(C)(C)C(=O)N[C@@H](CC(C)C)C(=O)N(C)C)C(C)C)ccc2C)C3)cn1` [Example 2, (R)—N-(1-(((S)-1-(dimethylamino)-4-methyl-1-oxopentan-2-yl)amino)-2-methyl-1-oxopropan-2-yl)-1-((4-methyl-3-(1-methyl-7-((6-methylpyridin-3-yl)amino)-2-oxo-1,4-dihydropyrimido[4,5-d]pyrimidin-3(2H)-yl)benzoyl)-L-valyl)pyrrolidine-2-carboxamide] (X1-V[dP][Aib]L-NMe2), the IC50 at LCK was 1 to 200 nM; against c-Src, 200 to 400 nM; against p38a/MAPK14 it was more than 600 nM; on ABL1, 200 to 400 nM; at ABL1 (T315I), more than 600 nM.

For the molecule `C=CCN1C(=O)[C@H](CC(C)C)N=C(c2ccccc2)c2ccc(C(=O)Nc3ccc(C)c(N4Cc5cnc(Nc6ccc(C)nc6)nc5N(C)C4=O)c3)cc21` [Example 38, (S)-1-allyl-3-isobutyl-N-(4-methyl-3-(1-methyl-7-((6-methylpyridin-3-yl)amino)-2-oxo-1,4-dihydropyrimido[4,5-d]pyrimidin-3(2H)-yl)phenyl)-2-oxo-5-phenyl-2,3-dihydro-1H-benzo[e][1,4]diazepine-8-carboxamide], the IC50 was in the range of 1 to 200 nM at LCK (read-out: LCK IC50), 200 to 400 nM on c-Src (read-out: c-Src IC50) and 1 to 200 nM on LYN.

For `Cc1ccc(Nc2ncc3c(n2)N(C)C(=O)N(c2cc(NC(=O)c4ccc5c(c4)NC(=O)[C@H](C)N=C5c4ccccc4)ccc2C)C3)cn1` [Example 30, (S)-3-methyl-N-(4-methyl-3-(1-methyl-7-((6-methylpyridin-3-yl)amino)-2-oxo-1,4-dihydropyrimido[4,5-d]pyrimidin-3(2H)-yl)phenyl)-2-oxo-5-phenyl-2,3-dihydro-1H-benzo[e][1,4]diazepine-8-carboxamide], the IC50 at LCK (read-out: LCK IC50) was 1 to 200 nM; on c-Src (read-out: c-Src IC50), 1 to 200 nM; on p38a/MAPK14 (read-out: p38a/MAPK14 IC50), 1 to 200 nM; at ABL1 (read-out: ABL1 IC50), 1 to 200 nM; at ABL1 (T315I) (read-out: ABL1 (T315I) IC50) it was more than 600 nM.

With `Cc1ccc(Nc2ncc3c(n2)N(C)C(=O)N(c2cc(NC(=O)c4ccc5c(c4)N(Cc4ccccc4)C(=O)[C@H](C)N=C5c4ccccc4)ccc2C)C3)cn1` [Example 31, (S)-1-benzyl-3-methyl-N-(4-methyl-3-(1-methyl-7-((6-methylpyridin-3-yl)amino)-2-oxo-1,4-dihydropyrimido[4,5-d]pyrimidin-3(2H)-yl)phenyl)-2-oxo-5-phenyl-2,3-dihydro-1H-benzo[e][1,4]diazepine-8-carboxamide], the IC50 is 1 to 200 nM on LCK (read-out: LCK IC50); 1 to 200 nM on c-Src (read-out: c-Src IC50); 1 to 200 nM on p38a/MAPK14 (read-out: p38a/MAPK14 IC50); 1 to 200 nM on ABL1 (read-out: ABL1 IC50); more than 600 nM at ABL1 (T315I) (read-out: ABL1 (T315I) IC50); 1 to 200 nM on LYN.

On to `Cc1ccc(Nc2ncc3c(n2)N(C)C(=O)N(c2cc(NC(=O)c4ccc5c(c4)NC(=O)[C@H](Cc4ccccc4)N=C5c4ccccc4)ccc2C)C3)cn1` [Example 26, (S)-3-benzyl-N-(4-methyl-3-(1-methyl-7-((6-methylpyridin-3-yl)amino)-2-oxo-1,4-dihydropyrimido[4,5-d]pyrimidin-3(2H)-yl)phenyl)-2-oxo-5-phenyl-2,3-dihydro-1H-benzo[e][1,4]diazepine-8-carboxamide], for which the IC50 at LCK (read-out: LCK IC50) is 1 to 200 nM; at c-Src (read-out: c-Src IC50) it was 1 to 200 nM; at p38a/MAPK14 (read-out: p38a/MAPK14 IC50) it was more than 600 nM; at ABL1 (read-out: ABL1 IC50), 1 to 200 nM; on ABL1 (T315I) (read-out: ABL1 (T315I) IC50), more than 600 nM.

For `Cc1ccc(Nc2ncc3c(n2)N(C)C(=O)N(c2cc(NC(=O)c4ccc5c(c4)N(C)C(=O)[C@H](CC(C)C)N=C5c4ccccc4)ccc2C)C3)cn1` [Example 37, (S)-3-isobutyl-1-methyl-N-(4-methyl-3-(1-methyl-7-((6-methylpyridin-3-yl)amino)-2-oxo-1,4-dihydropyrimido[4,5-d]pyrimidin-3(2H)-yl)phenyl)-2-oxo-5-phenyl-2,3-dihydro-1H-benzo[e][1,4]diazepine-8-carboxamide], the IC50 at LCK (read-out: LCK IC50), at c-Src (read-out: c-Src IC50) and at LYN was 1 to 200 nM each time.

Turning to `CC1=N[C@@H](Cc2ccccc2)C(=O)Nc2cc(C(=O)Nc3ccc(C)c(N4Cc5cnc(Nc6ccc(C)nc6)nc5N(C)C4=O)c3)ccc21` [Example 34, (S)-3-benzyl-5-methyl-N-(4-methyl-3-(1-methyl-7-((6-methylpyridin-3-yl)amino)-2-oxo-1,4-dihydropyrimido[4,5-d]pyrimidin-3(2H)-yl)phenyl)-2-oxo-2,3-dihydro-1H-benzo[e][1,4]diazepine-8-carboxamide], the IC50 on LCK (read-out: LCK IC50), on c-Src (read-out: c-Src IC50) and at LYN was 1 to 200 nM throughout.

Take `CC1=N[C@H](Cc2ccccc2)C(=O)Nc2cc(C(=O)Nc3ccc(C)c(N4Cc5cnc(Nc6ccc(C)nc6)nc5N(C)C4=O)c3)ccc21` [Example 35, (R)-3-benzyl-5-methyl-N-(4-methyl-3-(1-methyl-7-((6-methylpyridin-3-yl)amino)-2-oxo-1,4-dihydropyrimido[4,5-d]pyrimidin-3(2H)-yl)phenyl)-2-oxo-2,3-dihydro-1H-benzo[e][1,4]diazepine-8-carboxamide]: the IC50 at LCK (read-out: LCK IC50), at c-Src (read-out: c-Src IC50) and at LYN was 1 to 200 nM each time.
